# PMC5281649 (European Journal of Nuclear Medicine and Molecular Imaging, 2016)
# pEC50, pIC50: −log10 of the molar value. Where two headings read alike, the source gives them in different places.
# Assays:
# brain MAO-B enzyme = target: T1, brain MAO-B enzyme (Homo sapiens, UniProt P27338); test: Plasma concentration–MAO-B enzyme inhibition relationship (simple Emax model); type: in vivo; details: for Emax (maximum MAO-B occupancy) / EC50: pre-scan plasma concentration; for EC50: read-out: EC50 (plasma concentration at half-maximal occupancy) (converted)
# T1 sequence (P27338 1-520): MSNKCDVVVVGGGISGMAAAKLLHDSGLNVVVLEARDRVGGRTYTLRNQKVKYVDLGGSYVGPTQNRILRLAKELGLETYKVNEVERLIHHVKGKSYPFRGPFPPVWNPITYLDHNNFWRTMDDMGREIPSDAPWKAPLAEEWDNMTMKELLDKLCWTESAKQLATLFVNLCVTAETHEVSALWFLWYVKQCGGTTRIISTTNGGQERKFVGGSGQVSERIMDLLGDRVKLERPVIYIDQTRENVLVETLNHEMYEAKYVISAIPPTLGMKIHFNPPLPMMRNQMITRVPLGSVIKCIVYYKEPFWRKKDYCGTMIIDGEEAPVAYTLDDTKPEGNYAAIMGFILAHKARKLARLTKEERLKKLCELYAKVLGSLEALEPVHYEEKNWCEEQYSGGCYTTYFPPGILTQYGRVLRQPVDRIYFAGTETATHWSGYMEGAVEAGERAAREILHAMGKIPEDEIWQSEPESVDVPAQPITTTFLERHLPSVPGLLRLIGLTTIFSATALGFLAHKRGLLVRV
# Description: The PK/PD analysis was performed using Phoenix WinNonlin software version 6.2 (Pharsight Corporation, Mountain View, CA, USA).
# [1] = Safety assessments in this PET study; type: in vivo, human
# Description: The safety of sembragiline was assessed by monitoring vital signs, laboratory tests and adverse events (AEs), and by evaluating the risk of suicide using the Columbia Suicide Severity Rating Scale.
# MAO-B enzyme = target: MAO-B enzyme; design: method as in doi:10.1016/j.jalz.2013.05.1757; details: MAO enzymatic activity and displacement assays; read-out: IC50 from in vitro affinity assays of the MAO-B enzyme; cited from earlier work
# [2] = 1 and 5 mg daily; moderate AD; compared with placebo; cited from earlier work
# [3] = design: method as in PMID 22451094; details: phase 1 and 2 studies, approximately 1040 subjects; cited from earlier work
# [4] = design: method as in PMID 22451094; details: elderly subjects; steady-state conditions; plasma; cited from earlier work
# [5] = Pre-PET sembragiline plasma concentration at steady state (LC-MS/MS); type: in vivo, human
# [6] = AD patients, frontal cortex, steady state
# [7] = AD patients, hippocampus, steady state
# [8] = AD patients, striatum, steady state
# [9] = EC subjects, frontal cortex, steady state
# [10] = EC subjects, hippocampus, steady state
# [11] = EC subjects, striatum, steady state
smiles,measurement,setting,value
CC(=O)N[C@H]1CC(=O)N(c2ccc(OCc3cccc(F)c3)cc2)C1 [sembragiline],Emax (maximum MAO-B occupancy),brain MAO-B enzyme; [6],81.1 (CV%: 3.2)
same,EC50,brain MAO-B enzyme; [6],3.1 nM
same,Emax (maximum MAO-B occupancy),brain MAO-B enzyme; [7],85.9 (CV%: 4.1)
same,EC50,brain MAO-B enzyme; [7],3.77 nM
same,Emax (maximum MAO-B occupancy),brain MAO-B enzyme; [8],87.8 (CV%: 1.8)
same,EC50,brain MAO-B enzyme; [8],3.24 nM
same,Emax (maximum MAO-B occupancy),brain MAO-B enzyme; [9],80.1 (CV%: 8.9)
same,EC50,brain MAO-B enzyme; [9],4.59 nM
same,Emax (maximum MAO-B occupancy),brain MAO-B enzyme; [10],89.1 (CV%: 9.6)
same,EC50,brain MAO-B enzyme; [10],5.99 nM
same,Emax (maximum MAO-B occupancy),brain MAO-B enzyme; [11],88.8 (CV%: 7.5)
same,EC50,brain MAO-B enzyme; [11],4.88 nM
same,Estimated Emax of MAO-B inhibition,"brain MAO-B enzyme; across ROIs and for both populations, steady state",80–89%
same,pEC50,"brain MAO-B enzyme; across ROIs and for both populations, steady state, read-out: Estimated EC50 (plasma concentration)",8.23 to 8.53
same,Emax,"brain MAO-B enzyme; across ROIs and for both populations, steady state, read-out: Estimated Emax of MAO-B inhibition",80 to 90%
same,Sembragiline concentration needed for near-complete MAO-B inhibition in the brain,brain MAO-B enzyme; regardless of the population,around 20 ng/mL
same,Plasma concentration at which the plateau in MAO-B inhibition occurred,"brain MAO-B enzyme; steady state, AD patients and EC subjects",20 to 50 ng/mL
same,AEs reported as drug-related,[1]; 16 treated subjects (AD and EC),11 of 20
same,"Changes in laboratory parameters, vital signs or ECG measurements",[1]; AD patients and EC subjects,no clinically significant changes
same,Tolerability,"[1]; AD patients and EC subjects, 0.1–5 mg daily for 6–15 days",well tolerated
same,pIC50,MAO-B enzyme,8.22 to 8.30
same,Primary efficacy outcome on cognition (ADAS-Cog11),[2],failed on the primary efficacy outcome on cognition
same,Safety and tolerability,[3],safe and well tolerated
same,Terminal half-life,[4],50 to 65 h
same,"Pre-PET sembragiline plasma concentration at steady state, mean","[5]; AD patients, 1 mg q.d. for 14 days, N 3",41.9 ng/mL
same,"Pre-PET sembragiline plasma concentration at steady state, mean","[5]; AD patients, 5 mg loading day 1 then 0.1 mg q.d. Day 2–15, N 2",2.55 ng/mL
same,"Pre-PET sembragiline plasma concentration at steady state, mean","[5]; AD patients, 5 mg loading day 1 then 0.2 mg q.d. Day 2–7, N 3",7.06 ng/mL
same,"Pre-PET sembragiline plasma concentration at steady state, mean","[5]; AD patients, 5 mg q.d. for 6–9 days, N 2",96.7 ng/mL
same,"Pre-PET sembragiline plasma concentration at steady state, mean","[5]; EC subjects, 1 mg q.d. for 14 days, N 3",33.9 ng/mL
same,"Pre-PET sembragiline plasma concentration at steady state, mean","[5]; EC subjects, 5 mg loading day 1 then 0.2 mg q.d. Day 2–7, N 3",3.29 ng/mL
